Literature values as cited in patent publication US10426749B2, “Safflower oil emulsion as dietary supplement and preparation thereof” (INNOVITAMIN ORGANICS, LLC, priority 2011, dated 2019).

Tested on: post-menopausal, obese women with type 2 diabetes
Conditions: 8 grams daily for 16 weeks

conjugated linoleic acid [CLA]
metabolic parameters (trunk fat mass, HDL cholesterol, fasting glucose, insulin sensitivity, C-reactive protein): did not significantly alter
